From publication PMC4747407 (Oncotarget, 2015)
pIC50: −log10 of the molar value. Entries after “also recorded” stand apart in the source; their conditions may differ.

What was measured:
[1] = cited from earlier work
SW480 cells [2] = test: Western blot of Wnt/β-catenin pathway proteins in SW480 cells; assay type: cell-based, human; conditions: 10 μmol/L, 24 h
Experimental: (§1) SW480, DLD-1 (Wnt-dependent) or RKO (Wnt-independent) cells were plated in 6-well plates and incubated overnight. Cells were treated with E7449, olaparib or XAV939 and incubated for various time periods prior to processing by SDS PAGE and western blot analysis. […] Following binding of appropriate secondary antibodies labeled with IRDye® (LI-COR), image analysis was performed with Image Studio software for the LI-COR Odyssey system (version 2.1.10).

DLD-1 cells = test: Western blot of Wnt/β-catenin pathway proteins in DLD-1 cells; assay type: cell-based, human; conditions: 24 h
Experimental: as §1

SW480 cells [3] = test: Gene expression profiling of Wnt-related genes (TLDA qPCR) in SW480 cells; assay type: cell-based, human; conditions: 3 μmol/L (XAV939 also 30 μmol/L), 72 h
Experimental: (§2) Gene expression profiling was performed using a custom designed TaqMan® low density array (TLDA). Total RNA was isolated from cell lines using RNeasy Mini Kit (Qiagen) and from xenograft tumor FFPE tissue using RecoverAll Total Nucleic Acid Isolation (Ambion). Human and mouse, real-time qPCR TLDAs (384-well micro fluidic card) were designed with genes selected based on their involvement in Wnt signalling (see supplementary Tables 2 and 3 for lists of genes on TLDAs). cDNA was generated from total RNA using High Capacity cDNA Reverse Transcription kit (Life Technologies) or SuperScript® VILO™ Master Mix (Life Technologies). 100 ng cDNA was combined with TaqMan® Gene Expression Master Mix (Life Technologies) for the cell lines and TaqMan® Advanced FAST Master Mix (Life Technologies) for the xenograft tissue for each port (in duplicate). TLDAs were run based on recommended cycling times for each master mix. Ct values were calculated and imported into GeneData Analyst for further analysis. To calculate the ΔCts, gene expression was normalized to several housekeeping genes. Relative fold change was calculated by comparison to the DMSO or vehicle-treated controls for each sample. A student's t-test was used to calculate P-values and hierarchical clustering used Manhattan distance and complete linkage plotting of selected significant genes to generate heat maps.

[4] = system: B16-F10 mouse melanoma isografts; test: B16-F10 mouse melanoma isograft model, combination with TMZ; assay type: in vivo; conditions: E7449 100 mg/kg or TMZ 50 mg/kg, oral once daily
Experimental: All studies were performed according to IACUC approved protocols. The general health of mice was monitored daily.
TMZ combination in B16-F10 isograft model: female C57BL/6 mice were inoculated subcutaneously with B16-F10 cells (2 × 10^5). Following randomization by body weight, drug treatment was initiated 1 day post-inoculation. […] TMZ was administered daily on days 1 to 5 at 50 mg/kg as a single agent or in combination. […] The control group was treated with vehicle (0.5% methyl cellulose in water). E7449 or vehicle was administered first and when dosing of all animals was complete TMZ was administered to animals receiving the combination.

[5] = system: Wnt1 (int-1) mammary tumors; test: Wnt1 subcutaneous mammary tumor model; conditions: E6201 40 mg/kg i.v. Q4Dx3; for tumor growth, single agent: E7449 100 mg/kg once daily, Wnt-C59 10 mg/kg once daily
Experimental: (§3) All studies were performed according to IACUC approved protocols. The general health of mice was monitored daily. Tumor volume was determined by caliper measurements (mm), using the formula (l x w^2)/2 = mm^3, where l and w refer to the larger and smaller perpendicular dimensions collected at each measurement. Tumor dimensions were recorded twice per week starting when tumors reached an approximate size of 100 to 150 mm^3. Body weights were recorded twice per week and relative body weight was calculated as follows: Relative body weight = (body weight on day of measurement/body weight on first day of treatment).
Tumor pieces cut to approximately 2 mm^3 in size were injected subcutaneously in female nude mice. Treatment was initiated approximately 9–10 days post-implantation of mice.

Wnt1 model tumors = test: Gene expression of Wnt-related genes in Wnt1 model tumors (mouse TLDA); assay type: in vivo; conditions: 7 days of drug treatment
Experimental: as §2

TNKS1/2 = system: TNKS1/2; set-up: method as in Wahlberg et al 48; conditions: ref Wahlberg et al 48; cited from earlier work
tankyrase = conditions: read-out: reported IC50 values for tankyrase inhibition; various assays; cited from earlier work
[6] = system: MX-1 human breast cancer xenografts; assay type: in vivo; conditions: E7449 100 mg/kg oral once daily; carboplatin single i.v. dose 60 mg/kg
Experimental: as §3
Carboplatin combination in MX-1 orthotopic xenografts: female nude mice were implanted with MX-1 cells (0.5 × 10^6) in the thoracic mammary fat pad. Treatment started on day 3 when the average tumor size was approximately 50 mm^3. Carboplatin was administered as a single intravenous dose at 60 mg/kg on day 3 or 4.

[7] = system: DNA repair mutant DT40 cell lines; test: Proliferation assay in panel of isogenic DNA repair mutant DT40 cell lines (XTT); assay type: cell-based, avian; conditions: versus wild type DT40
PARP2 = conditions: read-out: reported IC50, PARP2; cited from earlier work
wild type DT40 cells = test: cells; conditions: DT40, 48 h, read-out: IC50, cell proliferation, wild type DT40 cells
TNKS1 = conditions: read-out: reported IC50, TNKS1; cited from earlier work

In the case of `CS(=O)(=O)c1ccc(-c2nnc(/C=C/c3nnc(-c4ccc(C#N)cc4)o3)n2-c2ccccc2Cl)nc1` [G007-LK], the “single agent antitumor activity” value [1] is listed as “inhibit tumor growth as a single agent in certain models” and the therapeutic window ([1]; in vivo) is listed as “very narrow therapeutic window because of intestinal toxicity”.

With `Oc1nc(-c2ccc(C(F)(F)F)cc2)nc2c1CSCC2` [XAV939] the “Cyclin D1 protein levels” value (SW480 cells [2]) was “modest decrease”, the axin2 protein level (SW480 cells [2]) was “Increased axin2” and the “reduction of active (non-phosphorylated) β-catenin level” value (SW480 cells [2]) was ~ 90%. The “reduction of total β-catenin level” value (SW480 cells [2]) was about 75%, the “effect on levels of β-catenin” value (DLD-1 cells) was “robust effect on levels of β-catenin was not observed” and the “expression of 6 E7449-responsive genes (NOS3, LGR5, LEF1, NKD1, CYR61, MMP7)” value (SW480 cells [3]) was “altered expression of these 6 genes in the same direction”.

With `Cn1nnc2c(C(N)=O)ncn2c1=O` [TMZ, temozolomide, reference compound] the “growth of subcutaneous tumors, single agent” value [4] was “moderately inhibited”.

For `CCNc1cc(O)c2c(c1)/C=C/C[C@H](O)[C@H](O)C(=O)/C=C\[C@@H](C)[C@H](C)OC2=O` [E6201, reference compound], the decreased body weight ([5]; recovered post-treatment) was under 10% and the “tumor growth, single agent” value [5] was “No antitumor activity”.

In the case of `Cc1cc(-c2ccc(CC(=O)Nc3ccc(-c4cccnc4)cc3)cc2)ccn1` [Wnt-C59, reference compound], the “tumor growth, single agent” value [5] was “significant antitumor activity; also recorded: significantly inhibited tumor growth” and the “expression of Wnt-related genes CAR2, FZD9, LEF1, VIL1 in tumors” value (Wnt1 model tumors) was “significant alteration”.

For `CNCc1ccc(-c2[nH]c3cc(F)cc4c3c2CCNC4=O)cc1` [rucaparib], the “binding to TNKS1/2 catalytic domain” value (TNKS1/2) is listed as “binding to the catalytic domain of multiple PARP family members including tankyrases”.

In the case of `C[C@]1(c2nc3c(C(N)=O)cccc3[nH]2)CCCN1` [veliparib], the “binding to TNKS1/2 catalytic domain” value (TNKS1/2) is listed as “no significant binding” and the pIC50 (tankyrase) is listed as […].

With `N.N.O=C([O-])C1(C(=O)[O-])CCC1.[Pt+2]` [carboplatin, reference compound] the “antitumor activity, single agent” value [6] was “modest, but statistically significant versus vehicle; also recorded: only modest antitumor activity”.

For `O=C(c1cc(Cc2n[nH]c(=O)c3ccccc23)ccc1F)N1CCN(C(=O)C2CC2)CC1` [olaparib], the “sensitivity of DT40 cells lacking PARP expression” value [7] was “A similar observation”, the “Cyclin D1 protein levels” value (SW480 cells [2]) was “unaffected” and the axin2 protein level (SW480 cells [2]) was “remained at basal levels”. For the same compound, the β-catenin protein levels (SW480 cells [2]) was “remained unchanged”, the “expression of 6 E7449-responsive genes (NOS3, LGR5, LEF1, NKD1, CYR61, MMP7)” value (SW480 cells [3]) was “no effect or altered expression in the opposite direction” and the pIC50 (PARP2) was […]. For the same compound, the “binding to TNKS1/2 catalytic domain” value (TNKS1/2) was “no significant binding”, the pIC50 (wild type DT40 cells) was 5.68 and the pIC50 (TNKS1) was […]. The pIC50 (tankyrase) was […].

In the case of `NC(=O)c1cccc2cn(-c3ccc([C@@H]4CCCNC4)cc3)nc12` [niraparib], the pIC50 (tankyrase) is given as 6.22.
